Data: patent US6593087B2, “Methods for detecting and reversing resistance to macrocyclic lactone compounds” (priority 1997, dated 2003)

Tests used:
[1] = test system: H. contortus moxidectin-resistant strain (MOF14); assay: Dose titration to establish LD50 against moxidectin resistant H. contortus in the jird; assay type: in vivo, Haemonchus contortus; conditions: jirds, oral, treated day 10 after inoculation, probit analysis
Experimental: (§1) Jirds, which are fed on a standard commercial ration to which 0.02% hydrocortisone has been added 5 days prior to infection, are inoculated with 1000 exsheathed L3 H. contortus. On day 10 after inoculation, the jirds are treated with either water or various doses of moxidectin or ivermectin orally. Each treatment group contains 6 jirds. Probit analyses are used to estimate LD50 levels for each anthelmintic against each strain.

[2] = test system: H. contortus susceptible strain (PF14); assay: Dose titration to establish LD50 against susceptible H. contortus in the jird; assay type: in vivo, Haemonchus contortus; conditions: jirds, oral, treated day 10 after inoculation, probit analysis
Experimental: as §1

[3] = test system: H. contortus ivermectin resistant strain (MFR); conditions: MFR selected over seventeen generations of ivermectin selection; cited from earlier work
[4] = test system: H. contortus moxidectin-resistant strain (MOF14); assay: Effect of verapamil on efficacy of moxidectin and ivermectin against moxidectin-resistant H. contortus in jirds (Example 8); assay type: in vivo, Haemonchus contortus; design: key to SIGNIFICANCE AT P <0.05: A: Different letters indicate the mean worm counts are statistically different; B: Different letters indicate the mean worm counts are statistically different; C: Different letters indicate the mean worm counts are statistically different; conditions: for SIGNIFICANCE AT P <0.05: MOF14 in jirds, mean worm counts, IVM (±VRP) not compared with MOX (±VRP)
[5] = test system: mice with deletion of mdr1a; conditions: mice with deletion of mdr1a versus normal mice; cited from earlier work
[6] = test system: H. contortus ivermectin resistant strain (ACR); conditions: ACR after twelve generations of ivermectin selection
[7] = test system: H. contortus moxidectin-resistant strain (MOF14); assay: Efficacy of verapamil with or without ivermectin against moxidectin resistant H. contortus in jirds (Example 7); assay type: in vivo, Haemonchus contortus
Experimental: as §1
(§2) Verapamil is given concomitantly with ivermectin by the oral route.

[8] = test system: H. contortus susceptible strain (PF14); assay: Efficacy of verapamil with or without ivermectin against susceptible H. contortus in jirds (Example 7); assay type: in vivo, Haemonchus contortus
Experimental: as §1, §2

[9] = verapamil 20 mg/kg, resistant worms, jirds (Example 8)

Row | Compound | estimated LD50 [1] [mg/kg] | estimated LD50 [2] [mg/kg] | resistance at the ED95 compared with MFS [3] [×] | SIGNIFICANCE AT P <0.05 [4] | sensitivity to ivermectin relative to normal mice [5] | resistance at the ED95 compared with ACS [6] [×] | significance of worm counts ([7]; MOX-resistant strain MOF14 in jirds, VRP 20 mg/kg, IVM 0.046 mg/kg, oral) | effect of verapamil alone on worm counts ([7]; moxidectin resistant strain, any of the dose rates used (20 to 80 mg/kg), jirds) | effect of verapamil on the efficacy of ivermectin ([7]; verapamil 20 mg/kg, moxidectin resistant worms, jirds (Example 7)) | effect of verapamil on the efficacy of moxidectin [4, 9] | increase in efficacy when verapamil is coadministered with ivermectin [4, 9] | significance of worm counts ([8]; susceptible strain PF14 in jirds, VRP 20 mg/kg, IVM 0.024 mg/kg, oral) | effect of verapamil alone on worm counts ([8]; susceptible strain, any of the dose rates used (20 to 80 mg/kg), jirds)
1 | 22,23-dihydroavermectin B1 [ivermectin] | 0.046 | 0.024 | 10 | B | 50-100 times | 6.3 | – | – | – | – | – | – | –
2 | COc1ccc(CCN(C)CCCC(C#N)(c2ccc(OC)c(OC)c2)C(C)C)cc1OC (centres unmarked) [verapamil] | – | – | – | A | – | – | n.s. | no significant effect on worm counts | significantly enhances the efficacy of ivermectin | significantly increases the efficacy of moxidectin | not significant | n.s. | no significant effect on worm counts
3 | CO/N=C1\C[C@]2(C[C@@H]3C[C@@H](C/C=C(\C)C[C@@H](C)/C=C/C=C4\CO[C@@H]5[C@H](O)C(C)=C[C@@H](C(=O)O3)[C@]45O)O2)O[C@H](/C(C)=C/C(C)C)[C@H]1C [moxidectin, 23-(O-methyloxime)-LL-F28249α] | 0.017 | 0.010 | – | B | – | – | – | – | – | – | – | – | –
